Test results taken from publication PMC7580722, “Design of new disubstituted imidazo[1,2-b]pyridazine derivatives as selective Haspin inhibitors. Synthesis, binding mode and anticancer biological evaluation” (Journal of Enzyme Inhibition and Medicinal Chemistry, 2020).

Tests used:
[1] = test system: U-2 OS cells; assay: Cell cycle analysis by flow cytometry (propidium iodide); settings: 2.5 µM, 24 h, U-2 OS
Experimental: Figure 6. […] DNA content was measured by flow cytometry and representative profiles are shown. (B) quantification of the proportion of cells in each phase of the cell cycle from the experiment described in (A). Results are mean percentage (n = 3 independent experiments).
Cellular evaluation methods
All media were supplemented with 10% fetal calf serum (unless overwise specified) and 2 mM L-glutamine and cells were cultured
F68-pluronic acid. Cells were fixed for 2h in ice-cold ethanol, then washed twice in PBS containing 0.1% F68-pluronic acid, centrifuged at 200 g and resuspended in a PBS buffer containing 1% Triton, 100 µg/ml RNase A (Thermo Scientific) and 40 µg/ml propidium iodide (Life Technologies). DNA content was determined using a FACS Canto II (BD) and the data were analyzed using FCS Express Cytometry software (De Novo Software).
Twenty thousand events were collected in each run.

[2] = test system: SH-SY5Y; assay: Cell viability, monolayer (2D), MTS assay; format: cell-based; settings: Homo sapiens, 48 h
[3] = biological target: T1, HsCdk2/Cyclin A (Homo sapiens, UniProt P24941); assay: CDK2 kinase assay; format: biochemical
T1 construct: made in house; host or cells: baculovirus/Sf9 cells
Experimental: (§1) Values are IC50 expressed in µM and calculated from dose–response curves (each point on the curves was performed in triplicate). Selectivity indexes (SI; in brackets) are calculated as follows: SI = IC50 kinase X/IC50 Haspin. ND: not determined. *IC50 values obtained using the ADP-Glo methodology (see Experimental section, Supplementary Material). […]
(§2) A, HsCdk9/Cyclin T). Native SscCK1δ /ε and SscGSK3α/β were purified from pig brain whereas HsPlk1, HsCdk1 and HsAurora B were purchased from ProQinase and SignalChem respectively. Kinase assays were performed in […]
(§3) mCi/ml; PerkinElmer) in a final volume of 30 µl as previously reported 51. After 30 min incubation at 30°C, the reaction mix was spotted onto GE healthcare P81 phosphocellulose paper using a FilterMate Harvester (PerkinElmer), and the filter was extensively washed with a 1% phosphoric acid solution. The wet filter-bound radioactivity was determined in the presence of 20 µl scintillation fluid (GE healthcare) with a TopCount® Scintillation and Luminescence Counter (PerkinElmer). IC50 values were calculated from dose-response curves […]
(§4) Kinase activities using the ADP-Glo methodology (ADP-Glo Kinase Assay; Promega) were assayed according to the assay described in Nguyen et al. 52 and Ibrahim et al. 53. […]

[4] = test system: U-2 OS; assay: Cell viability, monolayer (2D), MTS assay; format: cell-based; settings: Homo sapiens, U2OS, 48 h
[5] = biological target: T2, HsHaspin (Homo sapiens, UniProt Q8TF76); assay: Recombinant Haspin kinase assay ([γ-33P]ATP, 15 µM ATP; some values ADP-Glo); format: biochemical; settings: recombinant HsHaspin, in vitro
T2 construct: aa470-798; made in house; host or cells: E. coli
T2 sequence (Q8TF76 470-798): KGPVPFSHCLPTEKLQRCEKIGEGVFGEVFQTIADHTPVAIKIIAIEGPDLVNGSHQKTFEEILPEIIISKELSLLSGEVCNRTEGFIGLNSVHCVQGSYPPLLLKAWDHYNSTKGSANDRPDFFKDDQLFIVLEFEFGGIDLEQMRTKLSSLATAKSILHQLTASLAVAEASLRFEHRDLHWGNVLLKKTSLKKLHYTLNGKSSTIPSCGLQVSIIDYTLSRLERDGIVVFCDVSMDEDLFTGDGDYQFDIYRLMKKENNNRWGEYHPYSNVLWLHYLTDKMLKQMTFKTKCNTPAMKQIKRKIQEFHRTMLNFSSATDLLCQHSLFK
Experimental: as §1, §2, §3, §4

[6] = test system: HsCdk9/Cyclin T; assay: CDK9 kinase assay; format: biochemical, human; settings: SI = IC50 kinase X/IC50 Haspin
Experimental: as §1
(§5) The reaction was carried out as described in general procedure A using 4 (0.150 g, 0.58 mmol, 1 equiv.), 2-aminopyrimidine-5-boronic acid (0.122 g, 0.88 mmol, 1.5 equiv.) and Cs2CO3 (0.575 g, 1.75 mmol, 3 equiv.). The crude mixture was purified by flash chromatography on silica gel (EtOAc) to afford 28 (0.115 g, 73 %) as a yellow […]
(§6) The reaction was carried out as described in general procedure A using 4 (0.100 g, 0.39 mmol, 1 equiv.), 1-naphthaleneboronic acid (0.083g, 0.47 mmol, 1.2 equiv.) and Cs2CO3 (0.381 g, 1.17 mmol, 3 equiv.). […]
(§7) Recombinant protein kinases were expressed and purified from E. coli (HsHaspin kinase domain aa470-798, HsCdk5/p25, RnDYRK1A kinase domain aa1-499, HsPIM1, MmCLK1) or baculovirus/Sf9 cells (HsCdk2/Cyclin A, HsCdk9/Cyclin T). […] The wet filter-bound radioactivity was determined in the presence of 20 µl scintillation fluid (GE healthcare) with a TopCount® Scintillation and Luminescence Counter (PerkinElmer). IC50 values were calculated from dose-response curves […]

[7] = test system: HsCdk5/p25; assay: CDK5 kinase assay; format: biochemical, human; settings: SI = IC50 kinase X/IC50 Haspin
Experimental: as §1, §5, §6, §7

EC50 [2]: > 10 µM
selectivity for CDK2 vs Haspin ([3]; SI = IC50 kinase X/IC50 Haspin): 716 fold
IC50 ([3]; read-out: IC50 CDK2): 4.3 µM
IC50 [5]: 0.006 µM
selectivity for CDK9 vs Haspin [6]: 28 fold
selectivity for CDK5 vs Haspin [7]: 150 fold
SMILES: c1cc2[nH]ncc2cc1-c1cnc2ccc(OC[C@@H]3CNCCO3)nn12 [Compound 21]
cells in G2/M phase (% of cell total population) ([1]; DMSO control 12.8%): 21.4%
cells in S phase (% of cell total population) ([1]; DMSO control 51.9%): 32%
EC50 [4]: 5.2 µM
